Reference: ChEMBL document CHEMBL4715926, “Synthesis of Resolvin E1 and Its Conformationally Restricted Cyclopropane Congeners with Potent Anti-Inflammatory Effect” (2021)
Calls of active or inactive are those of the source. The rule behind the calls is not given here.

Tested on: Mus musculus
Assay: Antiinflammatory activity in BALB/c mouse assessed as inhibition of heat killed Propionibacterium acnes-induced neutrophil influx at 300 pg, ip administered 12 hrs after Propionibacterium acnes stimulation and measured after 24 hrs by flow cytometry analysis
Type: functional

Q: For CC[C@@H](O)/C=C/C=C\C[C@@H](O)/C=C/C=C/C=C\[C@@H](O)[C@H]1C[C@H]1C(=O)O, which inhibition is on record?
A: Active

Q: With CC[C@@H](O)/C=C/C=C\C[C@@H](O)/C=C/C=C/C=C\[C@@H](O)CCCC(=O)O [RESOLVIN E1] as the compound, how does the “inhibition (INH)” value read?
A: 31%

Q: Which inhibition does the source give for CC[C@@H](O)/C=C/C=C\C[C@@H](O)/C=C/C=C/C=C\[C@@H](O)[C@@H]1C[C@H]1C(=O)O here?
A: Active

Q: How did the “inhibition (INH)” value turn out when CC[C@@H](O)/C=C/C=C\C[C@@H](O)/C=C/C=C/C=C\[C@@H](O)[C@H]1C[C@@H]1C(=O)O was run?
A: 50%

Q: CC[C@@H](O)/C=C/C=C\C[C@@H](O)/C=C/C=C/C=C\[C@@H](O)[C@@H]1C[C@@H]1C(=O)O was tested. Which inhibition did it give?
A: Active
